Test results as given in patent US6156790A, “C-10 carbon-substituted artemisinin-like trioxane compounds having antimalarial, antiproliferative and antitumor activities” (priority 1997, dated 2000).

Legend:
NCI-H322M = assay: cells; type: cell-based; conditions: Homo sapiens, read-out: Log10 TGI
NCI-H522 = assay: cells; type: cell-based; conditions: Homo sapiens; for IC (TGI): read-out: Log10 TGI (converted)
SK-MEL-28 = assay: cells; type: cell-based; conditions: Homo sapiens
MCF7/ADR-RES = assay: cells; type: cell-based; conditions: Homo sapiens; for GI50: read-out: Log10 GI50 (converted)
SF-539 = assay: cells; type: cell-based; conditions: Homo sapiens; for GI50: read-out: Log10 GI50 (converted); for IC (TGI): read-out: Log10 TGI (converted)
SK-MEL-5 = assay: NCI 60 cell line screen (SRB), melanoma; type: cell-based; conditions: Homo sapiens
HCC-2998 = assay: NCI 60 cell line screen (SRB), colon cancer; type: cell-based; conditions: Homo sapiens
[1] = stability of pyranosyl fluorides; type: physicochemical; conditions: after purification
From the text: Coupling of either the α-fluoride or the β-fluoride VI with trimethylaluminum in the presence of boron trifluoride-etherate gave 10β-methyl derivative VII where n=1 and R=CH3 with almost complete stereoselectivity, thereby implicating a common oxygen-stabilized C-10 carbocation intermediate. The relative stereochemistry at carbons 9 and 10 was established by the characteristic ^1 H NMR chemical shifts and coupling constants of the methine hydrogen atoms at these positions (J9,10 =10-11 Hz for trans and J9,10 =5.6-6.7 Hz for cis). […] Several dimethyl aluminum acetylides, prepared from Me2 AlCl and the corresponding lithium acetylides, coupled smoothly to form exclusively the 10β-acetylenic derivatives. Di- and tri-methoxylated benzenes and heteroaromatic N-methylpyrrole and furan coupled to produce exclusively, in stereochemical contrast, the 10α-oriented derivatives. Apparently, relatively small nucleophiles approach the intermediate cation from the β-face of the molecule, whereas relatively large aryl and heteroaryl nucleophiles approach from the α-face (i.e. directed by and trans to the C-9 methyl group). Coupling of pyranosyl fluoride VI with N-methylpyrrole proceeded equally well on 400 mg scale as on 20 mg scale, and larger scale executions of this and of the other coupling reactions reported here are not expected to be a problem.

CAKI-1 = assay: NCI 60 cell line screen (SRB), renal cancer; conditions: Homo sapiens; for CC50: CAKI-1, read-out: Log10 LC50 (converted)
K-562 = assay: cells; type: cell-based; conditions: Homo sapiens, K562, K-562; for GI50: read-out: Log10 GI50 (converted)
786-0 = assay: cells; type: cell-based; conditions: Homo sapiens; for IC (TGI): read-out: Log10 TGI (converted)
CCRF-CEM = assay: NCI 60 cell line screen (SRB), leukemia; type: cell-based; conditions: Homo sapiens; for IC (TGI): read-out: Log10 TGI (converted)
LOX IMVI = assay: cells; type: cell-based; conditions: Homo sapiens; for CC50: read-out: Log10 LC50 (converted); for IC (TGI): read-out: Log10 TGI (converted)
SN12C = assay: cells; type: cell-based; conditions: Homo sapiens; for GI50: read-out: Log10 GI50 (converted); for CC50: read-out: Log10 LC50 (converted)
[2] = cited from earlier work
UACC-257 = assay: cells; type: cell-based; conditions: Homo sapiens
MALME-3M = assay: cells; type: cell-based; conditions: Homo sapiens; for IC (TGI): read-out: Log10 TGI (converted)
P. falciparum = conditions: two Hanian strains; cited from earlier work
P. berghei = conditions: P. berghei-infected mice; cited from earlier work
UACC-62 = assay: cells; type: cell-based; conditions: Homo sapiens; for CC50: read-out: Log10 LC50 (converted)
[3] = system: chloroquine-sensitive P. falciparum (NF54); assay: In vitro antimalarial activity ([3H]hypoxanthine incorporation); type: cell-based
Description: Activity was determined by measuring the incorporation of [^3 H]hypoxanthine, by the methods of Desjardins and Milhouse, with the following modofications, see […].; Haynes, […]. Antimicrob. Agents Chemother., 16:710 (1979); Milhous, W. K.; Weatherly, […].; Antimicrob. Agents Chemother., 27: 525 (1985). […] Parasitemia was maintained at 0.05-3% and doubling time at approximately 15 hours by twice weekly change of medium and replenishment with fresh erythrocytes. […] Sigma-Aldrich #27,043-1). DMSO solutions were diluted 500-fold in medium, serially diluted in 0.2% DMSO in medium (to maintain constant solvent concentration), then 100 μL aliquots were pipetted into microtiter plate wells (Costar 3595). […] Plates included at least 8 wells of no drug controls (4 with and 4 without DMSO) and 4 wells of uninfected erythrocytes. […] Cells were harvested (Brandel MB-48R) onto GF-C glass filters (Brandel). The filters were washed five times with 3 mL water per sample spot, dried under a heat lamp, and counted (Beckman Model LS-6500) in scintillation cocktail (ICN Cytoscint). Decays per minute (dpm) values were downloaded and analyzed (Power MFacintosh 7200/90; Microsoft Excel 5.0), to yield the mean and standard deviation at each drug concentration.

OVCAR-5 = assay: NCI 60 cell line screen (SRB), ovarian cancer; type: cell-based; conditions: Homo sapiens; for CC50: read-out: Log10 LC50 (converted); for IC (TGI): read-out: Log10 TGI (converted)
COLO 205 = assay: NCI 60 cell line screen (SRB), colon cancer; type: cell-based; conditions: Homo sapiens; for CC50: read-out: Log10 LC50 (converted); for IC (TGI): read-out: Log10 TGI (converted)
HS 578T = assay: cells; type: cell-based; conditions: Homo sapiens; for CC50: read-out: Log10 LC50 (converted); for IC (TGI): read-out: Log10 TGI (converted)
SK-OV-3 = assay: NCI 60 cell line screen (SRB), ovarian cancer; type: cell-based; conditions: Homo sapiens
SF-295 = assay: cells; type: cell-based; conditions: Homo sapiens
DU-145 = assay: cells; type: cell-based; conditions: Homo sapiens
OVCAR-4 = assay: NCI 60 cell line screen (SRB), ovarian cancer; type: cell-based; conditions: Homo sapiens, read-out: Log10 GI50 (converted)
[4] = read-out: Log10 GI50 (converted)
[5] = read-out: Log10 LC50 (converted)
[6] = read-out: Log10 TGI (converted)

C[C@H]1[C@@H](F)O[C@@H]2O[C@@]3(C)CC[C@H]4[C@H](C)CC[C@@H]1[C@@]24OO3 [Compound VI, 10β-Fluorodeoxoartemisinin]
IC (TGI) (NCI-H322M): > 100 µM | GI50 (NCI-H522; [4]): 0.851 µM | CC50 (NCI-H522; [5]): 64.6 µM | IC (TGI) (NCI-H522): 16.6 µM | GI50 (SK-MEL-28; [4]): 17.8 µM | GI50 (MCF7/ADR-RES): 3.55 µM | GI50 (SF-539): 14.1 µM | IC (TGI) (SF-539): 40.7 µM | CC50 (SK-MEL-5; [5]): 61.7 µM | IC (TGI) (SK-MEL-5; [6]): 13.5 µM | GI50 (HCC-2998; [4]): 14.5 µM | IC (TGI) (HCC-2998; [6]): 12.9 µM | stability of solid [1]: stable crystalline solid | GI50 (CAKI-1; CAKI-1, read-out: Log10 GI50 (converted)): 724 µM | CC50 (CAKI-1): 47.9 µM | GI50 (K-562): 0.316 µM | IC (TGI) (K-562; [6]): 12.6 µM | GI50 (786-0; [4]): 1.55 µM | IC (TGI) (786-0): 14.8 µM | GI50 (CCRF-CEM; CCRP-CEM, read-out: Log10 GI50 (converted)): 0.562 µM | IC (TGI) (CCRF-CEM): 53.7 µM | GI50 (LOX IMVI; [4]): 0.355 µM | CC50 (LOX IMVI): 31.6 µM | IC (TGI) (LOX IMVI): 275 µM

C[C@@H]1CC[C@H]2[C@@H](C)C(=O)O[C@@H]3O[C@@]4(C)CC[C@@H]1[C@]32OO4 [Artemisinin]
GI50 (SN12C): 61.7 µM | CC50 (SN12C): > 100 µM | solubility in water [2]: insolubility in water | CC50 (SK-MEL-28; [5]): > 100 µM | IC (TGI) (SK-MEL-28; read-out: Log10 TGI): > 100 µM | CC50 (UACC-257; [5]): > 100 µM | CC50 (MALME-3M; [5]): > 100 µM | IC (TGI) (MALME-3M): 87.1 µM | potency in vitro compared with chloroquine (P. falciparum): comparable to that of chloroquine | SD90 (parasitemia 90 percent suppressed) (P. berghei): 6.20 mg/kg | CC50 (UACC-62): > 100 µM | IC50 ([3]; Plasmodium falciparum, NF54): 0.01 µM | CC50 (OVCAR-5): > 100 µM | IC (TGI) (OVCAR-5): > 100 µM | GI50 (K-562): 46.8 µM | CC50 (K-562; [5]): > 100 µM | CC50 (COLO 205): > 100 µM | IC (TGI) (COLO 205): > 100 µM | CC50 (HS 578T): > 100 µM | IC (TGI) (HS 578T): > 100 µM

C[C@H]1[C@@H](CC(=O)c2ccc(C(=O)C[C@H]3O[C@@H]4O[C@@]5(C)CC[C@H]6[C@H](C)CC[C@@H]([C@H]3C)[C@@]46OO5)cc2)O[C@@H]2O[C@@]3(C)CC[C@H]4[C@H](C)CC[C@@H]1[C@@]24OO3 [Dimer 21]
GI50 (SN12C): 0.0105 µM | CC50 (SN12C): 85.1 µM | IC (TGI) (SN12C; [6]): 12.3 µM | IC (TGI) (NCI-H522): 28.2 µM | GI50 (MCF7/ADR-RES): 0.0105 µM | CC50 (MCF7/ADR-RES; [5]): 79.4 µM | IC (TGI) (MCF7/ADR-RES; [6]): 14.1 µM | IC (TGI) (UACC-257; [6]): 17.8 µM | GI50 (MALME-3M; [4]): 0.0468 µM | IC (TGI) (MALME-3M): 28.2 µM | GI50 (UACC-62; [4]): 0.0724 µM | CC50 (UACC-62): 95.5 µM | IC (TGI) (UACC-62; [6]): 27.5 µM | GI50 (SF-539): 0.0166 µM | CC50 (SF-539; [5]): 38 µM | IC (TGI) (SF-539): 14.5 µM | IC50 compared with artemisinin ([3]; in words): lower than that of artemisinin | GI50 (SK-OV-3; [4]): 263 µM | CC50 (SK-OV-3; [5]): 52.5 µM | GI50 (SF-295; [4]): 4.79 µM | CC50 (SF-295; [5]): 77.6 µM | IC (TGI) (SF-295; [6]): 25.1 µM | CC50 (CAKI-1): 27.5 µM | IC (TGI) (CAKI-1; CAKI-1, read-out: Log10 TGI): 0.0891 µM | CC50 (OVCAR-5): 60.3 µM | IC (TGI) (OVCAR-5): 14.5 µM | IC (TGI) (786-0): 14.8 µM | CC50 (COLO 205): 0.0759 µM | IC (TGI) (COLO 205): 0.0407 µM | IC (TGI) (CCRF-CEM): 45700 µM | CC50 (LOX IMVI): 49 µM | IC (TGI) (LOX IMVI): 12 µM | CC50 (HS 578T): 72.4 µM | IC (TGI) (HS 578T): 15.1 µM | GI50 (DU-145; [4]): 6.31 µM | IC (TGI) (DU-145; [6]): 31.6 µM | GI50 (OVCAR-4): 1.58 µM
